Reference: ChEMBL document CHEMBL4507310, “Data for DCP probe A-1211212” (2021)

Experiments:
[1] = molecular target: Eukaryotic translation initiation factor 2-alpha kinase 1 (Homo sapiens) (UniProt Q9BQI3); conditions: Compound concentration 1000.0 nM
[2] = molecular target: G protein-coupled receptor kinase 3 (Homo sapiens) (UniProt P35626); conditions: Compound concentration 1000.0 nM
[3] = molecular target: Platelet-derived growth factor receptor alpha (Homo sapiens) (UniProt P16234); conditions: Compound concentration 1000.0 nM
[4] = molecular target: Serine/threonine-protein kinase WNK3 (Homo sapiens) (UniProt Q9BYP7); conditions: Compound concentration 1000.0 nM
[5] = molecular target: SRSF protein kinase 2 (Homo sapiens) (UniProt P78362); conditions: Compound concentration 1000.0 nM
[6] = molecular target: Transient receptor potential cation channel subfamily M member 6 (Homo sapiens) (UniProt Q9BX84); conditions: Compound concentration 1000.0 nM
[7] = molecular target: Dual specificity tyrosine-phosphorylation-regulated kinase 2 (Homo sapiens) (UniProt Q92630); conditions: Compound concentration 1000.0 nM
[8] = molecular target: Sulfonylurea receptors; K-ATP channels (Rattus norvegicus) (UniProt Q63563+P70673+Q63664+Q09429); assay: KATP channel Eurofins-Cerep binding assay; format: protein-complex assay; set-up: ligand concentration 0.1 nM; conditions: filed as antagonist, Compound concentration 10.0 uM
Sulfonylurea receptors; K-ATP channels (Rattus norvegicus), sequence (P70673 whole entry, looked up, canonical isoform): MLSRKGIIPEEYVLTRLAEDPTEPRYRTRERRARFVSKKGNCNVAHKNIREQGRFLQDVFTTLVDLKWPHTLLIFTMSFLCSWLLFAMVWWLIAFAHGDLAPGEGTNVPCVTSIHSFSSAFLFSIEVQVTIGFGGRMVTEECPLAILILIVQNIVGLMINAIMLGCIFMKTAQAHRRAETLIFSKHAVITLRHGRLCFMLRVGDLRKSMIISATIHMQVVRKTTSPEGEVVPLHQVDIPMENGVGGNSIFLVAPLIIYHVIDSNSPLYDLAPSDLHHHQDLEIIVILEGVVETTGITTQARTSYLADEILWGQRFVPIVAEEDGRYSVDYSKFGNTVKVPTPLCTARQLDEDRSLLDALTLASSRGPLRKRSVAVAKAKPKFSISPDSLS
Sulfonylurea receptors; K-ATP channels (Rattus norvegicus), sequence (Q09429 whole entry, looked up, canonical isoform): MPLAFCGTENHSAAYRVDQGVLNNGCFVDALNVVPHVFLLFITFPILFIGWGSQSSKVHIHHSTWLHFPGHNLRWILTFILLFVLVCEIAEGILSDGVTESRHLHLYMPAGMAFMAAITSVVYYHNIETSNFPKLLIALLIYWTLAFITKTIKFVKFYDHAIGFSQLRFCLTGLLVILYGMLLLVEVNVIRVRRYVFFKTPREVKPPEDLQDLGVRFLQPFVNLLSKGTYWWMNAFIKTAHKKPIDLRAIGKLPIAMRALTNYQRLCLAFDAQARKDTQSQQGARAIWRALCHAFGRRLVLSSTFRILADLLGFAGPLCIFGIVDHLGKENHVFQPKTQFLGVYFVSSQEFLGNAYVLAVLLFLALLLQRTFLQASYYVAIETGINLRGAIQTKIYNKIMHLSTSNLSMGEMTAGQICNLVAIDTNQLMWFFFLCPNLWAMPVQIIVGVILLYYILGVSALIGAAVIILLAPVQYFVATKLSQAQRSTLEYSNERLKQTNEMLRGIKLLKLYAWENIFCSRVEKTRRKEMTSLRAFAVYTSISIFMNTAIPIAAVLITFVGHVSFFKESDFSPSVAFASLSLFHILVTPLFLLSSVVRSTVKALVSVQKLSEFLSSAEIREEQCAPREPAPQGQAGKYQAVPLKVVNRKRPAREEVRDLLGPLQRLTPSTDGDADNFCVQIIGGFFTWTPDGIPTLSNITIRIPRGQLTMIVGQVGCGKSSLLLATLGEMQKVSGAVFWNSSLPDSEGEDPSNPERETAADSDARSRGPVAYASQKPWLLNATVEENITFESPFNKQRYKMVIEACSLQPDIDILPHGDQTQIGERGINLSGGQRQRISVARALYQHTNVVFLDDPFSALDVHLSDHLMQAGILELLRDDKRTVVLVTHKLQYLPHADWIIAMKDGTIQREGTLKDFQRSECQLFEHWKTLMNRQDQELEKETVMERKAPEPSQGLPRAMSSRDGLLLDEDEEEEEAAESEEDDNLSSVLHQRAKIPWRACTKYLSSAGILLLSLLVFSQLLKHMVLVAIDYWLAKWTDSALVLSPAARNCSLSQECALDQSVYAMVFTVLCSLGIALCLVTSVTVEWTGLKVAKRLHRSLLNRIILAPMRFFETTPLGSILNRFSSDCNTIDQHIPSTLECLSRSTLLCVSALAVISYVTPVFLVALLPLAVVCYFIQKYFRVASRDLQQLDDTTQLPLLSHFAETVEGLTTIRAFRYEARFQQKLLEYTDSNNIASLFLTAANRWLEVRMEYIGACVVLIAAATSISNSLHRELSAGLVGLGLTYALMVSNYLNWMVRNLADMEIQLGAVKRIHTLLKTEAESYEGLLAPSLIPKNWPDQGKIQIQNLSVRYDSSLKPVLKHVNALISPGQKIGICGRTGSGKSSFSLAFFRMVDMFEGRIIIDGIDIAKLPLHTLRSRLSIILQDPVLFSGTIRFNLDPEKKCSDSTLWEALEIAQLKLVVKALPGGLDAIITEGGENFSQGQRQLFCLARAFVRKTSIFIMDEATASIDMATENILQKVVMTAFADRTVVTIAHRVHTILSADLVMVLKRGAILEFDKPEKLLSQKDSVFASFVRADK
Sulfonylurea receptors; K-ATP channels (Rattus norvegicus), sequence (Q63563 whole entry, looked up, canonical isoform): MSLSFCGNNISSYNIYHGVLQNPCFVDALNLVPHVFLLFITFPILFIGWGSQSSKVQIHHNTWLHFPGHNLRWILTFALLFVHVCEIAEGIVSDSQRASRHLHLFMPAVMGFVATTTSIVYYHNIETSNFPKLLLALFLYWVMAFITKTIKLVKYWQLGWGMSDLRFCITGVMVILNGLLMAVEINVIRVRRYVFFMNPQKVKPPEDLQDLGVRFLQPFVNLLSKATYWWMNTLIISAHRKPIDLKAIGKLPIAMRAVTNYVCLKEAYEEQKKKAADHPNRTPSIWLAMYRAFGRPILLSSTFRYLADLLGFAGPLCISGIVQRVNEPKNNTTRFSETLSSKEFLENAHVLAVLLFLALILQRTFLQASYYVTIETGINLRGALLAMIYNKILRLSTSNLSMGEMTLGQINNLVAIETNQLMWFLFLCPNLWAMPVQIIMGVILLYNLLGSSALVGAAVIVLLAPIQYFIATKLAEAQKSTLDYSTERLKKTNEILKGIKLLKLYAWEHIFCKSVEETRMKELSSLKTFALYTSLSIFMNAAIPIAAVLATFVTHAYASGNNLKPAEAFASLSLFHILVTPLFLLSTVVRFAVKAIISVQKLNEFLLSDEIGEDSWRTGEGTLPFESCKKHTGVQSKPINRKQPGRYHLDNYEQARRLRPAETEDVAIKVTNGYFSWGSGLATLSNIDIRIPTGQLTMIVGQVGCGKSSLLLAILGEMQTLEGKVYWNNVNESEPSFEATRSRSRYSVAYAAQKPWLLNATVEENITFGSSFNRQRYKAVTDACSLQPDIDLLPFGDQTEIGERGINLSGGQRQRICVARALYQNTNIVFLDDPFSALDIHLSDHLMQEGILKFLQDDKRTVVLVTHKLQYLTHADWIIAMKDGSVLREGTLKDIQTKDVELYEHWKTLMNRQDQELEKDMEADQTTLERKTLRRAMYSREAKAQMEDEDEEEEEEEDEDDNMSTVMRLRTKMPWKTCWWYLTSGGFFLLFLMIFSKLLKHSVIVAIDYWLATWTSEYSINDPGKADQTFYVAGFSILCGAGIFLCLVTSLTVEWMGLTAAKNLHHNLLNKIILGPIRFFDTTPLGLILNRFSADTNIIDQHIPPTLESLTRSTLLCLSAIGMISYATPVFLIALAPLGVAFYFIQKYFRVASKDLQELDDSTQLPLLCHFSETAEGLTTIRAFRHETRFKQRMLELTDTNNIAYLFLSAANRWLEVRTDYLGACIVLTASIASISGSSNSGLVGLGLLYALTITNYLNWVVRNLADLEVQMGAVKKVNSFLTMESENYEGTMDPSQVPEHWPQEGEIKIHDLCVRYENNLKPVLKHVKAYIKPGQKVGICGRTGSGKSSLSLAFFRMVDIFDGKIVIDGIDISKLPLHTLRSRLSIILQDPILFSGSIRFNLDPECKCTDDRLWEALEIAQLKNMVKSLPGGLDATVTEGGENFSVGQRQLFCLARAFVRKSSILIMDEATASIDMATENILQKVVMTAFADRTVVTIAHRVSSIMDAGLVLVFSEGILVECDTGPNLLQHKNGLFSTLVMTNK
Sulfonylurea receptors; K-ATP channels (Rattus norvegicus), sequence (Q63664 whole entry, looked up, canonical isoform): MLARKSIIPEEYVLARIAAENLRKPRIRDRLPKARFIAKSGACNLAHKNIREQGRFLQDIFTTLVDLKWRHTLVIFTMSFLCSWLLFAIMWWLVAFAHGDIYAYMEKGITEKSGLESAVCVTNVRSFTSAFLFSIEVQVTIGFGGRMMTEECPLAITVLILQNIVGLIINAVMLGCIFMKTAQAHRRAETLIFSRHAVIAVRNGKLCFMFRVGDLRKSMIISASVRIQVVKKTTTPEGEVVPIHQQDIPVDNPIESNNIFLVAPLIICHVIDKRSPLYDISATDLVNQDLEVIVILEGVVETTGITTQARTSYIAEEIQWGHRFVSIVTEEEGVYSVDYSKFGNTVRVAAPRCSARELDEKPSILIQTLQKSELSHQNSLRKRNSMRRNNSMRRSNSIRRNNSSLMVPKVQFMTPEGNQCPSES

[9] = molecular target: Phosphatidylinositol 4,5-bisphosphate 3-kinase catalytic subunit gamma isoform (Homo sapiens) (UniProt P48736); conditions: Compound concentration 1000.0 nM
[10] = system: Tyrosine-protein kinase ABL1 (Homo sapiens), P00519 [Q252H]; conditions: Compound concentration 1000.0 nM
[11] = system: Mast/stem cell growth factor receptor Kit (Homo sapiens), P10721 [V559D]; conditions: Compound concentration 1000.0 nM
[12] = molecular target: Hepatocyte growth factor receptor (Homo sapiens) (UniProt P08581); conditions: Compound concentration 1000.0 nM
[13] = molecular target: Serine/threonine-protein kinase TNNI3K (Homo sapiens) (UniProt Q59H18); conditions: Compound concentration 1000.0 nM
Serine/threonine-protein kinase TNNI3K (Homo sapiens), sequence (Q59H18 whole entry): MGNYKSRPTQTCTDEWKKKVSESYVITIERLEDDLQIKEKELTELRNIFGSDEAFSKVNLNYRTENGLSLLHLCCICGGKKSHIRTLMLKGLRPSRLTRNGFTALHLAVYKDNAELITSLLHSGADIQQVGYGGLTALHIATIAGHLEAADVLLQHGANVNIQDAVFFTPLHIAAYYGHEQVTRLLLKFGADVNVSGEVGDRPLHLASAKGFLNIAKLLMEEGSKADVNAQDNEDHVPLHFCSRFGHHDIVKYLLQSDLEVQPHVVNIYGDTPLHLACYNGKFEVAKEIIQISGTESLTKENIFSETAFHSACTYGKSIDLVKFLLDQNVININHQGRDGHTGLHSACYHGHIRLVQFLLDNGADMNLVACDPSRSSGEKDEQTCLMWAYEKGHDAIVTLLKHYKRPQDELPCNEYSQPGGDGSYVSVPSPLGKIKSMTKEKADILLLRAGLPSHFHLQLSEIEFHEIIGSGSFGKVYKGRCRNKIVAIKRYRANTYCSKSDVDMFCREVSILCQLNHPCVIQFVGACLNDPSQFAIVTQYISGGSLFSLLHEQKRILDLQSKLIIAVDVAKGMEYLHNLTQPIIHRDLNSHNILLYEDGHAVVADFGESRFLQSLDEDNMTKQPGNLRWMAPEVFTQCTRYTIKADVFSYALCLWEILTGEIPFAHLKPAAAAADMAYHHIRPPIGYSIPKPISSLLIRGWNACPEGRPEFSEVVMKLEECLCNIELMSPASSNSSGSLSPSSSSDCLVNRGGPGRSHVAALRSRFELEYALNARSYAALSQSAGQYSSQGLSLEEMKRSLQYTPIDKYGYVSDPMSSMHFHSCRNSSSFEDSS

[14] = molecular target: Serine/threonine-protein kinase Sgk3 (Homo sapiens) (UniProt Q96BR1); conditions: Compound concentration 1000.0 nM
[15] = molecular target: Phosphorylase b kinase gamma catalytic chain, skeletal muscle/heart isoform (Homo sapiens) (UniProt Q16816); conditions: Compound concentration 1000.0 nM
[16] = molecular target: Muscarinic acetylcholine receptor M3 (Homo sapiens) (UniProt P20309); conditions: Compound concentration 10.0 uM
[17] = molecular target: Sodium-dependent dopamine transporter (Homo sapiens, UniProt Q01959); assay: dopamine transporter (h) Eurofins-Cerep binding assay; set-up: ligand concentration 4 nM; conditions: filed as antagonist, Compound concentration 10.0 uM
[18] = molecular target: Glutamate NMDA receptor (Rattus norvegicus) (UniProt P35439+Q00959+Q00960+Q00961+Q62645+Q8VHN2+Q9R1M7); assay: NMDA Eurofins-Cerep binding assay; format: protein-complex assay; set-up: ligand concentration 5 nM; conditions: filed as antagonist, Compound concentration 10.0 uM
[19] = molecular target: Leucine-rich repeat serine/threonine-protein kinase 2 (Homo sapiens) (UniProt Q5S007); conditions: Compound concentration 1000.0 nM
Rattus norvegicus = species on record: Rattus norvegicus; conditions: Compound concentration 10.0 uM
[20] = molecular target: Mitogen-activated protein kinase kinase kinase 13 (Homo sapiens) (UniProt O43283); conditions: Compound concentration 1000.0 nM
[21] = molecular target: Serine/threonine-protein kinase D1 (Homo sapiens) (UniProt Q15139); conditions: Compound concentration 1000.0 nM
[22] = molecular target: Myosin light chain kinase family member 4 (Homo sapiens) (UniProt Q86YV6); conditions: Compound concentration 1000.0 nM
[23] = molecular target: Serine/threonine-protein kinase B-raf (Homo sapiens) (UniProt P15056); conditions: Compound concentration 1000.0 nM
[24] = molecular target: Neuropeptide Y receptor type 1 (Homo sapiens) (UniProt P25929); assay: Y1 (h) Eurofins-Cerep binding assay; set-up: ligand concentration 0.025 nM; conditions: filed as agonist, Compound concentration 10.0 uM
[25] = molecular target: Serine/threonine-protein kinase mTOR (Homo sapiens) (UniProt P42345); conditions: Compound concentration 1000.0 nM
[26] = molecular target: Receptor-interacting serine/threonine-protein kinase 1 (Homo sapiens) (UniProt Q13546); conditions: Compound concentration 1000.0 nM
[27] = molecular target: Tyrosine-protein kinase Lyn (Homo sapiens) (UniProt P07948); conditions: Compound concentration 1000.0 nM
[28] = molecular target: Mitogen-activated protein kinase kinase kinase 10 (Homo sapiens) (UniProt Q02779); conditions: Compound concentration 1000.0 nM
[29] = molecular target: Ephrin type-A receptor 6 (Homo sapiens) (UniProt Q9UF33); conditions: Compound concentration 1000.0 nM
[30] = molecular target: Tyrosine-protein kinase ZAP-70 (Homo sapiens) (UniProt P43403); conditions: Compound concentration 1000.0 nM
[31] = system: Epidermal growth factor receptor (Homo sapiens), P00533 [UNDEFINED MUTATION]; conditions: Compound concentration 1000.0 nM
[32] = molecular target: Tyrosine-protein kinase BTK (Homo sapiens) (UniProt Q06187); conditions: Compound concentration 1000.0 nM
[33] = molecular target: Serine/threonine-protein kinase 25 (Homo sapiens) (UniProt O00506); conditions: Compound concentration 1000.0 nM
[34] = system: Receptor-type tyrosine-protein kinase FLT3 (Homo sapiens), P36888 [UNDEFINED MUTATION]; conditions: Compound concentration 1000.0 nM
[35] = system: Tyrosine-protein kinase ABL1 (Homo sapiens), P00519 [F317L]; conditions: Compound concentration 1000.0 nM
[36] = molecular target: Beta-2 adrenergic receptor (Homo sapiens) (UniProt P07550); assay: Beta2 (h) Eurofins-Cerep binding assay; set-up: ligand concentration 0.3 nM; conditions: filed as antagonist, Compound concentration 10.0 uM
[37] = molecular target: Cyclin-dependent kinase 5 (Homo sapiens) (UniProt Q00535); conditions: Compound concentration 1000.0 nM
Cyclin-dependent kinase 5 (Homo sapiens), sequence (Q00535 whole entry, looked up): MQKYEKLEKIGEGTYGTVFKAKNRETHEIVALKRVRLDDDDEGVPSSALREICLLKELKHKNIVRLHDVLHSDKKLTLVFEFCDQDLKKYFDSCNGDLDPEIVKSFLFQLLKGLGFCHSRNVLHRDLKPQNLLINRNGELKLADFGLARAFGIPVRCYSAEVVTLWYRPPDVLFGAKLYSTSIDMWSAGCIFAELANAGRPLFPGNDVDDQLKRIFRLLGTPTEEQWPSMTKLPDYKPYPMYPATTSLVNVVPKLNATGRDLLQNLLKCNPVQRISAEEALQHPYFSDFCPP

[38] = molecular target: L-type Ca2+ channel (dihydropyridine site) (Rattus norvegicus, UniProt P22002+P27732+Q02485); assay: Ca2+ channel (L, dihydropyridine site) Eurofins-Cerep binding assay; format: protein assay; set-up: incubation time 90 min, incubation temperature RT, ligand concentration 0.1 nM; conditions: rat cerebral cortex, probe [3H]nitrendipine (0.1 nM), compound concentration 10 uM, read-out: % Inhibition of Control Specific Binding (Mean n=2)
[39] = system: Epidermal growth factor receptor (Homo sapiens), P00533 [G719C]; conditions: Compound concentration 1000.0 nM
[40] = molecular target: Serine/threonine-protein kinase RIO3 (Homo sapiens) (UniProt O14730); conditions: Compound concentration 1000.0 nM
[41] = molecular target: Serine/threonine-protein kinase tousled-like 1 (Homo sapiens) (UniProt Q9UKI8); conditions: Compound concentration 1000.0 nM
[42] = molecular target: Serine/threonine-protein kinase N1 (Homo sapiens) (UniProt Q16512); conditions: Compound concentration 1000.0 nM

O=C(NS(=O)(=O)c1ccc(NCC2CCOCC2)c([N+](=O)[O-])c1)c1ccc(N2CCN(Cc3ccc(C(F)(F)F)cc3-c3ccc(Cl)cc3)CC2)cc1Oc1cnc2[nH]ccc2c1 [A-1210227]
residual activity [1]: 84% | residual activity [2]: 78% | residual activity [3]: 100% | residual activity [4]: 100% | residual activity [5]: 100% | residual activity [6]: 89% | residual activity [7]: 100% | % Inhibition of Control Specific Binding (Mean n=2) [8]: 9.9% | residual activity [9]: 86% | residual activity [10]: 100% | residual activity [11]: 100% | residual activity [12]: 93% | residual activity [13]: 95% | residual activity [14]: 92% | residual activity [15]: 100% | inhibition [16]: 12.6% | % Inhibition of Control Specific Binding (Mean n=2) [17]: 2.2% | % Inhibition of Control Specific Binding (Mean n=2) [18]: -7.6% | residual activity [19]: 100% | inhibition (Rattus norvegicus): 11.6% | residual activity [20]: 91% | residual activity [21]: 89% | residual activity [22]: 100% | residual activity [23]: 100% | % Inhibition of Control Specific Binding (Mean n=2) [24]: 3.1% | residual activity [25]: 100% | residual activity [26]: 99% | residual activity [27]: 99% | residual activity [28]: 95% | residual activity [29]: 100% | residual activity [30]: 82% | residual activity [31]: 81% | residual activity [32]: 100% | residual activity [33]: 98% | residual activity [34]: 100% | residual activity [35]: 100% | % Inhibition of Control Specific Binding (Mean n=2) [36]: 10.5% | residual activity [37]: 81% | inhibition at 90 min, 10 µM [38]: 7.3% | residual activity [39]: 83% | residual activity [40]: 98% | residual activity [41]: 100% | residual activity [42]: 100%

CO[C@H]1CC[C@H](CNc2ccc(S(=O)(=O)NC(=O)c3ccc(N4CCN(CC5=C(c6ccc(Cl)cc6)CC(C)(C)CC5)CC4)cc3Oc3cnc4[nH]ccc4c3)cc2[N+](=O)[O-])CC1 [A-1211212]
residual activity [1]: 100% | residual activity [2]: 79% | residual activity [3]: 100% | residual activity [4]: 100% | residual activity [5]: 55% | residual activity [6]: 87% | residual activity [7]: 100% | % Inhibition of Control Specific Binding (Mean n=2) [8]: 9.7% | residual activity [9]: 86% | residual activity [10]: 81% | residual activity [11]: 99% | residual activity [12]: 68% | residual activity [13]: 85% | residual activity [14]: 99% | residual activity [15]: 100% | inhibition [16]: 3.65% | % Inhibition of Control Specific Binding (Mean n=2) [17]: 29.7% | % Inhibition of Control Specific Binding (Mean n=2) [18]: -3.3% | residual activity [19]: 100% | inhibition (Rattus norvegicus): 41.5% | residual activity [20]: 89% | residual activity [21]: 76% | residual activity [22]: 98% | residual activity [23]: 100% | % Inhibition of Control Specific Binding (Mean n=2) [24]: 5.9% | residual activity [25]: 50% | residual activity [26]: 77% | residual activity [27]: 74% | residual activity [28]: 89% | residual activity [29]: 99% | residual activity [30]: 97% | residual activity [31]: 61% | residual activity [32]: 100% | residual activity [33]: 83% | residual activity [34]: 86% | residual activity [35]: 83% | % Inhibition of Control Specific Binding (Mean n=2) [36]: -1% | residual activity [37]: 82% | inhibition at 90 min, 10 µM [38]: 63.2% | residual activity [39]: 67% | residual activity [40]: 100% | residual activity [41]: 82% | residual activity [42]: 83%
